Results published in US9670224B2, “Forsythiaside sulfate and derivatives thereof, preparation method and application thereof” (priority 2013, dated 2017).
Counter-ions that a name gives are not always drawn. Like-named read-outs stand apart in the source and are kept apart here. Marks after values point to notes of the source that are not given here.

Experiments:
Adenovirus (AdV) = assay: Impact of the drug on virus-induced cytopathy (CPE, MTT), ADV; format: cell-based; details: Vero cells, 100TCID50, drug at about the maximum non-toxic concentration, 72 h
Vero cell = assay: Cytotoxicity test on Vero cells (MTT); format: cell-based, African green monkey; details: 72 h, Probit regression
Experimental: Cytotoxicity test: drugs are diluted according to the concentrations indicated in Table 1 for the determination of cytotoxicity.
The aforementioned drugs which are diluted with a maintenance solution (DMEM containing 2% or fetal bovine serum) to different concentrations are dropwise added to the Vero monolayer cell, each well is 0.2ml, there are 6 duplicate wells for each concentration, 6 wells for normal control (normal control group without adding drugs) and 6 wells for blank control (culture medium) are additionally provided, those are placed in an 5% CO2 incubator at 37° C. for culturing, observing CPE with an inverted microscope every day and recording. After 72 h, 20 μL (5 mg·mL^−1) of MTT solution is added in each well, and continues to be incubated for 4 h, the culture broth in each well is sucked and discarded, 100 μL of DMSO is added in each well, and is shaken for 5 min, measuring the OD value at 492 nm to calculate cell survival rate. In SPSS 18.0 statistical software, the cell survival rate is subjected to Probit regression analysis to calculate the maximum non-toxic concentration (TC0) and half toxic concentration (TC50) of the drug on the Vero cell.

Coxsackievirus B3 (CVB3) = assay: Impact of the drug on virus-induced cytopathy (CPE, MTT), CVB3; format: cell-based; details: Vero cells, 100TCID50, drug at about the maximum non-toxic concentration, 72 h
Enterovirus EV71 = assay: Impact of the drug on virus-induced cytopathy (CPE, MTT), EV71; format: cell-based; details: Vero cells, 100TCID50, drug at about the maximum non-toxic concentration, 72 h
[1] = Solubility of the isolated solid; details: water and ethanol
[2] = test system: parainfluenza virus infected mice; format: in vivo, Kunming mice
[3] = test system: influenza virus infected mice; format: in vivo, Kunming mice; details: lung suspension, 5 days
[4] = test system: parainfluenza virus pneumonia model mice; assay: Observation of lung histomorphology, parainfluenza virus pneumonia mice; format: in vivo, Kunming mice; details: 3.25 mg/kg/d to 13 mg/kg/d, fifth day, HE staining
[5] = test system: influenza virus pneumonia model mice; assay: Observation of lung histomorphology, influenza virus pneumonia mice; format: in vivo, Kunming mice; details: 3.25 mg/kg/d to 13 mg/kg/d, fifth day, HE staining
Experimental: A degreasing cotton is placed in a 200-300 mL beaker, in which a suitable amount of ether (just for making cotton wet) is added, the beaker containing the degreasing cotton is inverted upside down, the mice are extremely excited when anesthetized therein, and are made to lie on their backs when clearly weak, the mice are infected nasally with 15LD50 influenza virus a .d parainfluenza virus at 0.03 ml/nostril, and the virus suspension is replaced with normal saline in the normal control group.
The administration is performed once a day for five consecutive days. The virus control group is drenched with normal saline of the same volume.
Various mice lungs are respectively taken in the fifth day after treatment; general pathological changes of their viscera are observed by naked eyes and are recorded. The lungs are cleaned by rinsing with normal saline and moisture thereon is sucked up by using filter paper; a portion of the lung is fixed with 10% formaldehyde, paraffin-embedded, sliced and HE-strained; observation and photographing are performed under a microscope.

[6] = test system: parainfluenza virus infected mice; format: in vivo, Kunming mice; remark: listed apart in the source
[7] = test system: influenza virus infected mice; format: in vivo, Kunming mice; details: 5 days
[8] = test system: Respiratory syncytial virus (RSV); assay: Impact of the drug on virus-induced cytopathy (CPE, MTT), RSV; format: cell-based; details: Vero cells, 100TCID50, drug at about the maximum non-toxic concentration, 72 h
[9] = test system: Coxsackievirus A16 (CoxA16); assay: Impact of the drug on virus-induced cytopathy (CPE, MTT), CoxA16; format: cell-based; details: Vero cells, 100TCID50, drug at about the maximum non-toxic concentration, 72 h
Parainfluenza virus = assay: Impact of the drug on virus-induced cytopathy (CPE, MTT), parainfluenza virus; format: cell-based; details: Vero cells, 100TCID50, drug at about the maximum non-toxic concentration, 72 h
Influenza virus = assay: Impact of the drug on virus-induced cytopathy (CPE, MTT), influenza virus; format: cell-based
[10] = test system: Herpes simplex virus type-1 (HSV-1); assay: Impact of the drug on virus-induced cytopathy (CPE, MTT), HSV-I; format: cell-based; details: Vero cells, 100TCID50, drug at about the maximum non-toxic concentration, 72 h
[11] = parainfluenza virus infected mice, high dosage 13.0 mg/kg/d intragastric, 5 days
[12] = parainfluenza virus infected mice, low dosage 3.25 mg/kg/d intragastric, 5 days
[13] = high dosage 13.0 mg/kg/d intragastric
[14] = low dosage 3.25 mg/kg/d intragastric

Row | Structure (SMILES) | antiviral effective rate (ER %), ADV (Adenovirus (AdV)) | half toxic concentration (TC50) (Vero cell) [µg/mL] | the maximum non-toxic concentration (TC0) (Vero cell) [g/L] | antiviral effective rate (ER %), CVB3 (Coxsackievirus B3 (CVB3)) [%] | antiviral effective rate (ER %), EV71 (Enterovirus EV71) | solubility [1] | antiviral effective rate (ER %), RSV [8] | antiviral effective rate (ER %), CoxA16 [9] [%] | antiviral effective rate (ER %), Parainfluenza virus (Parainfluenza virus) | antiviral effective rate (ER %), HSV-I [10] | further results
1 | COc1ccc([C@H]2OCC3C2CO[C@H]3c2ccc(OC)c(OS(=O)(=O)O)c2)cc1OC.N (stereo partly shown) | 20.88* % | 555 | 0.105 | 7.10 | 35.12% | soluble in water and ethanol |  |  |  |  | 
2 | COc1ccc([C@H]2OCC3C2CO[C@H]3c2ccc(OC)c(OS(=O)(=O)O)c2)cc1OC (stereo partly shown) [forsythiaside sodium sulfate] | 20.91* % | 685 | 0.128 | 10.55 | 50.21% | soluble in water and ethanol |  |  |  |  | Lung index (X ± S) ([2]; mouse, in vivo): 1.303 ± 0.062; Lung index inhibition rate (%) ([2]; mouse, in vivo): 18.46%; Lung index (X ± S) [2, 11]: 1.331 ± 0.073; Lung index inhibition rate (%) [2, 11]: 16.73%; Lung index (X ± S) [2, 12]: 1.311 ± 0.049; Lung index inhibition rate (%) [2, 12]: 17.96%; Hemagglutination titer (InX) ([3]; high dosage 13.0 mg/kg/d): 20.07 ± 0.646; Hemagglutination titer (InX) ([3]; low dosage 3.25 mg/kg/d): 23.93 ± 1.392; lung histology / pulmonary tissue pathology [4]: significantly improve the pulmonary tissue pathology; lung histology / pulmonary tissue pathology [5]: significantly improve the pulmonary tissue pathology; Hemagglutination titer (InX) ([6]; lung suspension, parainfluenza virus infected mice, high dosage 13.0 mg/kg/d, 5 days): 19.82 ± 0.981; Hemagglutination titer (InX) ([6]; lung suspension, parainfluenza virus infected mice, low dosage 3.25 mg/kg/d, 5 days): 23.26 ± 0.991; Hemagglutination titer (InX) ([6]; mouse, in vivo): 21.01 ± 0.614; Lung index (X ± S) [7, 13]: 1.1809 ± .057; Lung index inhibition rate (%) [7, 13]: 20.73%; Lung index (X ± S) [7, 14]: 1.344 ± 0.035; Lung index inhibition rate (%) [7, 14]: 9.69%
3 | CCOC(=O)C1=C[C@@H](OC(CC)CC)[C@H](NC(C)=O)[C@@H](N)C1 [oseltamivir phosphate, Oseltamivir phosphate, reference compound] | 10.31% | 832 | 0.28 | 1.64 | 51.86% |  | 37.60% | 2.95 | 94.52** % | 66.56** % | antiviral effective rate (ER %), Influenza virus (Influenza virus; Vero cells, 100TCID50, drug at about the maximum non-toxic concentration, 72 h, MTT): 81.76** %
4 | NC(=O)c1ncn([C@@H]2O[C@H](CO)[C@@H](O)[C@H]2O)n1 [ribavirin, Ribavirin, reference compound] | 0.43% |  |  | 13.44 | 4.25** % |  | 50.08* % | 0.70 | 97.56** % | 62.92** % | antiviral effective rate (ER %), Influenza virus (Influenza virus): 57.49** %; Hemagglutination titer (InX) ([3]; 58.5 mg/kg/d): 21.13 ± 0.986; Hemagglutination titer (InX) ([6]; lung suspension, parainfluenza virus infected mice, 58.5 mg/kg/d, 5 days): 26.73 ± 1.193
